In publication PMC12016938, “A small molecule PKCε inhibitor reduces hyperalgesia induced by paclitaxel or opioid withdrawal” (JCI Insight, 2025):

Key:
[1] = system: self-administration (addictive potential); assay: I.v. self-administration of CP612, between-session progressive ratio and demand curve; conditions: rat, in vivo
Experimental: We tested the addictive potential of CP612 by examining the extent to which rats are willing to work to obtain CP612. Rats were initially trained to self-administer either saline, morphine (500 μg/kg/i.v. infusion), or 1 of 3 different doses of CP612 (75, 150, or 300 μg/kg/i.v. infusion) for 4 days at fixed ratio 1 (FR1, where 1 nose poke delivers 1 infusion).
During the second phase, the ratio to obtain an infusion increased geometrically every other day (FR1, FR3, FR6, FR12, FR24, FR48, and FR96).
Data (number of self-infusions) were also fitted in an economic-demand curve, which provides an estimate of the motivation to obtain drugs and their addictive potential ([20]). We measured elasticity (α), which is the relative change in consumption as a function of price (i.e., ratio of nose pokes required to obtain an infusion). Behavior is considered “inelastic” when consumption is insensitive to price and “elastic” when consumption is sensitive to price. We also measured Pmax, which is the price at which intake switches from inelastic to elastic. […] (Figure 8B).
Rats not immediately anesthetized were eliminated from the study.
Following this initial acquisition phase at FR1, the ratio to obtain the drug was increased geometrically every other day: FR3 (3 nose pokes are required to obtain 1 infusion of morphine), FR6, FR12, FR24, FR48, and FR96. This allows for analysis of drug consumption as a function of “price” using demand curves for behavioral economics, which can estimate the motivation to obtain drugs and their “addictive potential” ([20]). For this, data from each rat were fitted to the equation log Q = log Q0 + k (e ^–α(Q0 ^C) – 1), where Q represents consumption (number of self-infusions), and Q0 represents the level of consumption at the lowest price. C represents price for the drug (i.e., the ratio), and k is set to a constant accounting for the estimated range of consumption in logarithmic units (k = 4 in these studies). The symbol α is the relative change in consumption across changes in price (ratio). Behavior is considered “inelastic” when consumption is insensitive to price (i.e., the curve is flat, and consumption is maintained despite increases in price), and it switches to “elastic” when consumption is sensitive to price (i.e., when the curve is steep and consumption declines with increases in price). […] We also compared groups for their average intake in the consumption-price curves by measuring α (elasticity) and Pmax.

[2] = system: morphine self-administration; format: in vivo; conditions: morphine 500 µg/kg/infusion alone, individual rats and group mean
Experimental: Because many patients with chronic pain take opioids for pain management ([8], [9]), we wanted to know if CP612 would change opioid intake. Therefore, we investigated if adding CP612 to the morphine solution during self-administration (i.e., a cocktail of morphine and CP612) modifies self-administration of morphine. We tested rats from the prior experiment for self-administration of morphine (500 μg/kg/i.v. infusion). Rats were first tested under a FR6 to reestablish responding.
Rats not immediately anesthetized were eliminated from the study. This excluded 2 rats from all experiments.

[3] = system: paclitaxel-induced hyperalgesia; assay: Paclitaxel-induced hyperalgesia, Randall-Selitto paw pressure test; conditions: male rats; 1 mg/kg i.p. on days 1, 3, 5, 7
Experimental: We tested if CP612 reverses this hyperalgesia. Male rats received repeated injections of paclitaxel (1 mg/kg, i.p. on days 1, 3, 5, and 7). Twenty-four hours after the last dose of paclitaxel, rats were administered vehicle (2 mL/kg, i.p.) or CP612 (20 mg/kg, i.p.).
Mechanical nociceptive thresholds in rats were quantified by the Randall-Selitto paw pressure test using an Ugo Basile Analgesy-Meter. This device applies a linearly increasing mechanical force to the dorsum or plantar region of the rat hind paw. The mechanical nociceptive threshold is defined as the force in grams at which a rat withdraws its paw. The higher the force to elicit paw withdrawal, the higher the pain threshold (and the lower the sensitivity to pain). For studies testing nociceptive thresholds after the PKCε activator ψεRACK, or after the cancer chemotherapeutic drug paclitaxel, rats were placed into cylindrical acrylic restrainers for 40 minutes before starting each session. The restrainers had lateral ports to allow access to the hind paw, as previously described ([35]), and pain thresholds were measured by applying force to the dorsum of the hind paw. Prior to starting experiments, baseline mechanical nociceptive threshold was obtained as the mean of 2–3 readings on 1 hind paw in each rat.

SMILES: CN1CC[C@]23c4c5ccc(O)c4O[C@H]2[C@@H](O)C=C[C@H]3[C@H]1C5 [Mor]
- AVG AH (FR3) [1]: 25.72
- AVG AH (FR6) [1]: 41.83
- AVG AH (FR12) [1]: 75.17
- AVG AH (FR24) [1]: 136.00
- AVG AH (FR48) [1]: 160.11
- AVG AH (FR96) [1]: 163.28
- AVG IH (FR1_D1 to D4) [1]: 7.83
- AVG IH (FR1_Last 2 FR1 days) [1]: 4.44
- AVG IH (FR1_Last 4 FR1 days) [1]: 6.31
- AVG IH (FR3) [1]: 9.28
- AVG IH (FR6) [1]: 8.33
- AVG IH (FR12) [1]: 9.39
- AVG IH (FR24) [1]: 10.72
- AVG IH (FR48) [1]: 14.00
- AVG IH (FR96) [1]: 15.22
- AVG Inf (FR3) [1]: 7.00
- AVG Inf (FR6) [1]: 6.22
- AVG Inf (FR12) [1]: 5.56
- AVG Inf (FR24) [1]: 5.00
- AVG Inf (FR48) [1]: 2.83
- AVG Inf (FR96) [1]: 1.17
- AVG Latency (FR1_D1 to D4) [1]: 2.60
- AVG Latency (FR1_Last 2 FR1 days) [1]: 0.81
- AVG Latency (FR1_Last 4 FR1 days) [1]: 0.93
- AVG Latency (FR3) [1]: 0.62
- AVG Latency (FR6) [1]: 1.19
- AVG Latency (FR12) [1]: 1.12
- AVG Latency (FR24) [1]: 1.19
- AVG Latency (FR48) [1]: 0.69
- AVG Latency (FR96) [1]: 0.92
- D1 AH (FR1) [1]: 13.44
- D1 AH (FR3) [1]: 24.67
- D1 AH (FR6) [1]: 38.44
- D1 AH (FR12) [1]: 75.11
- D1 AH (FR24) [1]: 135.67
- D1 AH (FR48) [1]: 167.78
- D1 AH (FR96) [1]: 169.67
- D1 IH (FR1) [1]: 11.56
- D1 IH (FR3) [1]: 9.11
- D1 IH (FR6) [1]: 7.11
- D1 IH (FR12) [1]: 9.22
- D1 IH (FR24) [1]: 10.56
- D1 IH (FR48) [1]: 13.22
- D1 IH (FR96) [1]: 17.11
- D1 Inf (FR1) [1]: 8.78
- D1 Inf (FR3) [1]: 6.56
- D1 Inf (FR6) [1]: 5.67
- D1 Inf (FR12) [1]: 5.67
- D1 Inf (FR24) [1]: 4.89
- D1 Inf (FR48) [1]: 2.89
- D1 Inf (FR96) [1]: 1.33
- D1 Latency (FR1) [1]: 7.37
- D1 Latency (FR3) [1]: 0.52
- D1 Latency (FR6) [1]: 0.51
- D1 Latency (FR12) [1]: 0.93
- D1 Latency (FR24) [1]: 0.99
- D1 Latency (FR48) [1]: 0.71
- D1 Latency (FR96) [1]: 1.02
- D2 AH (FR1) [1]: 11.44
- D2 AH (FR3) [1]: 26.78
- D2 AH (FR6) [1]: 45.22
- D2 AH (FR12) [1]: 75.22
- D2 AH (FR24) [1]: 136.33
- D2 AH (FR48) [1]: 152.44
- D2 AH (FR96) [1]: 156.89
- D2 IH (FR1) [1]: 6.89
- D2 IH (FR3) [1]: 9.44
- D2 IH (FR6) [1]: 9.56
- D2 IH (FR12) [1]: 9.56
- D2 IH (FR24) [1]: 10.89
- D2 IH (FR48) [1]: 14.78
- D2 IH (FR96) [1]: 13.33
- D2 Inf (FR1) [1]: 8.89
- D2 Inf (FR3) [1]: 7.44
- D2 Inf (FR6) [1]: 6.78
- D2 Inf (FR12) [1]: 5.44
- D2 Inf (FR24) [1]: 5.11
- D2 Inf (FR48) [1]: 2.78
- D2 Inf (FR96) [1]: 1.00
- D2 Latency (FR1) [1]: 0.74
- D2 Latency (FR3) [1]: 0.72
- D2 Latency (FR6) [1]: 1.88
- D2 Latency (FR12) [1]: 1.31
- D2 Latency (FR24) [1]: 1.39
- D2 Latency (FR48) [1]: 0.68
- D2 Latency (FR96) [1]: 0.82
- D3 AH (FR1) [1]: 14.11
- D3 IH (FR1) [1]: 8.44
- D3 Inf (FR1) [1]: 9.22
- D3 Latency (FR1) [1]: 1.40
- D4 AH (FR1) [1]: 14.00
- D4 IH (FR1) [1]: 4.44
- D4 Inf (FR1) [1]: 9.56
- D4 Latency (FR1) [1]: 0.90
- last AH (FR1) [1]: 14.00
- last IH (FR1) [1]: 4.44
- last Inf (FR1) [1]: 9.78
- last Latency (FR1) [1]: 0.71
- last-1 AH (FR1) [1]: 14.00
- last-1 IH (FR1) [1]: 4.44
- last-1 Inf (FR1) [1]: 9.56
- last-1 Latency (FR1) [1]: 0.90
- last-2 AH (FR1) [1]: 14.11
- last-2 IH (FR1) [1]: 8.44
- last-2 Inf (FR1) [1]: 9.22
- last-2 Latency (FR1) [1]: 1.40
- last-3 AH (FR1) [1]: 12.67
- last-3 IH (FR1) [1]: 7.89
- last-3 Inf (FR1) [1]: 8.89
- last-3 Latency (FR1) [1]: 0.69
- D3 Breakin Point (PR) ([2]; Day 3, progressive ratio): 38.3
- D1 AH (FR6) ([2]; active hole, Day 1, fixed ratio): 49.2
- D2 AH (FR6) ([2]; active hole, Day 2, fixed ratio): 68.6
- D3 AH (PR) ([2]; active hole, Day 3, progressive ratio): 186.1
- D1 IH (FR6) ([2]; inactive hole, Day 1, fixed ratio): 4.7
- D2 IH (FR6) ([2]; inactive hole, Day 2, fixed ratio): 5.2
- D3 IH (PR) ([2]; inactive hole, Day 3, progressive ratio): 8.8
- D1 Inf (FR6) ([2]; infusions, Day 1, fixed ratio): 6.7
- D2 Inf (FR6) ([2]; infusions, Day 2, fixed ratio): 9.4
- D3 Inf (PR) ([2]; infusions, Day 3, progressive ratio): 10.5
- D1 mg/kg (FR6) ([2]; intake, Day 1, fixed ratio): 3.3 mg/kg
- D2 mg/kg (FR6) ([2]; intake, Day 2, fixed ratio): 4.7 mg/kg
- D3 mg/kg (PR) ([2]; intake, Day 3, progressive ratio): 5.2 mg/kg
- D1 Latency (FR6) ([2]; time to first self-administered infusion, Day 1, fixed ratio): 3.3 min
- D2 Latency (FR6) ([2]; time to first self-administered infusion, Day 2, fixed ratio): 2.8 min

SMILES: CC(=O)O[C@H]1C(=O)[C@@]2(C)[C@H]([C@H](OC(=O)c3ccccc3)[C@]3(O)C[C@H](OC(=O)[C@H](O)[C@@H](NC(=O)c4ccccc4)c4ccccc4)C(C)=C1C3(C)C)[C@]1(OC(C)=O)CO[C@@H]1C[C@@H]2O [Paclitaxel]
- Effect of paclitaxel on nociceptive threshold [3]: induced hyperalgesia
